According to article PMC11475482, “The 2‐oxoglutarate/malate carrier extends the family of mitochondrial carriers capable of fatty acid and 2,4‐dinitrophenol‐activated proton transport” (Acta Physiologica (Oxford, England), 2024):
Substitutions are numbered along the chain they refer to.

Assays:
Experiment in all cases: planar lipid bilayer proton conductance
Type in all cases: biochemical
[1] = target: T1, mOGC (2‐oxoglutarate/malate carrier, SLC25A11) (Mus musculus, UniProt Q9CR62)
T1 construct: 34 kDa monomer, dimer (~69 kDa) on SDS-PAGE (dimer possibly artefact); tag not mentioned
T1 sequence (Q9CR62 2-314): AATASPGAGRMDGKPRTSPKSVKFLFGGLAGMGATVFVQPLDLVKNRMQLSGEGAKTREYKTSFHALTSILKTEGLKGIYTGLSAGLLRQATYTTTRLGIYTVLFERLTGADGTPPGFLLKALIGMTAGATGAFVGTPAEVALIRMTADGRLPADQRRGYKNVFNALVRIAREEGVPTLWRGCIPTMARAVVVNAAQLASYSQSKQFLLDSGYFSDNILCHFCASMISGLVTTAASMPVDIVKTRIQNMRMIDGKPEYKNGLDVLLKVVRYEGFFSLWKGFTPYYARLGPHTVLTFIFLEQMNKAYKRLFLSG

[2] = target: T2, mOGC (2‐oxoglutarate/malate carrier, SLC25A11) (Mus musculus, UniProt Q9CR62, R90S)
T2 construct: 34 kDa monomer, dimer (~69 kDa) on SDS-PAGE (dimer possibly artefact); tag not mentioned
T2 sequence (Q9CR62 2-314 R90S): T1 sequence (Q9CR62 2-314) with R89S

[3] = target: T1, mOGC (2‐oxoglutarate/malate carrier, SLC25A11); settings: read-out: % inhibition at 4 mM
[4] = target: T1, mOGC (2‐oxoglutarate/malate carrier, SLC25A11); settings: total membrane conductance with mOGC; activator (protonophore); pH 7.34, 32°C

SMILES	IC50 [1]	inhibition at 2000 µM [2]	inhibition at 4000 µM [3]	Gm at 15 mol% [4]
O=C(O)CCC(=O)C(=O)O [2‐oxoglutarate]	60 ± 10 µM	19%		
Nc1ncnc2c1ncn2[C@@H]1O[C@H](COP(=O)(O)OP(=O)(O)OP(=O)(O)O)[C@@H](O)[C@H]1O [ATP]			75%	
CCCCC/C=C\C/C=C\C/C=C\C/C=C\CCCC(=O)O [arachidonic acid]				92.5 ± 16.5 nS/cm^2
O=C(O)C[C@H](O)C(=O)O [malate]	100 ± 60 µM	74%		
O=C(O)CC(C(=O)O)c1ccccc1 (stereo not shown) [phenylsuccinate]	1000 ± 110 µM			
